Where “and” joins values, the source holds several entries; their conditions need not be identical. Equal entries are not always repeated.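 1) Cells in 96-well plates. 2) Compound, 48 h, 5 concentrations. 3) Linear interpolation between surrounding doses. 4) Unreached endpoint = highest concentration. GI50 = concentration required for 50% inhibition of growth. At the TGI there is no net growth.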
Columns and labels:
Assay in all cases: inhibition of tumour cell growth, NCI panel, 48 h
[1] = system: HOP-62 NSCLC
[2] = system: 786-0 renal
[3] = system: MALME-3M melanoma
[4] = system: RPMI-8226 leukemia
[5] = system: MDA-MB-231 breast
[6] = system: OVCAR-3 ovarian
[7] = system: COLO 205 colon
[8] = system: MCF7 breast
[9] = system: SW-620 colon
[10] = system: M14 melanoma
[11] = system: SNB-19 CNS
[12] = system: ACHN renal
[13] = system: IGROV1 ovarian
[14] = system: OVCAR-5 ovarian
[15] = system: MDA-N
[16] = system: HCT-15 colon
[17] = system: HCC-2998 colon
[18] = system: MDA-MB-435
[19] = system: U251 CNS
[20] = system: SR leukemia
[21] = system: SF-295 CNS
[22] = system: OVCAR-4 ovarian
[23] = system: SF-268 CNS
[24] = system: HS 578T breast
[25] = system: NCI-H522 lung
[26] = system: TK-10 renal
[27] = system: SK-MEL-2 melanoma
[28] = system: RXF 393 renal
[29] = system: KM12 colon
[30] = system: UO-31 renal
[31] = system: SN12C renal
[32] = system: LOX IMVI melanoma
[33] = system: UACC-62 melanoma
[34] = system: T-47D breast
[35] = system: CAKI-1 renal
[36] = system: CCRF-CEM leukemia
[37] = system: SF-539 CNS
[38] = system: A549 NSCLC
[39] = system: HT29 colon
[40] = system: NCI-H23 lung
[41] = system: SK-MEL-5 melanoma
[42] = system: HL-60(TB) leukemia
[43] = system: EKVX NSCLC
[44] = system: PC-3 prostate
[45] = system: OVCAR-8 ovarian
[46] = system: NCI-H460 lung
[47] = system: BT-549 breast
[48] = system: SK-MEL-28 melanoma
[49] = system: SK-OV-3 ovarian
[50] = system: UACC-257 melanoma
[51] = system: DU-145 prostate
[52] = system: HCT-116 colon
[53] = system: MOLT-4 leukemia
[54] = system: NCI-H226 lung
[55] = system: K-562 leukemia
[56] = system: SNB-75 CNS
[57] = system: HOP-92 NSCLC
[58] = system: A498 renal

## COC(=O)[C@@H]1C[C@H]2OC(=O)CC[C@]2(C)O[C@H]1[C@H]1O[C@@](C)(O)CCC[C@H]1C
[1]
  TGI: > 50 µM
[2]
  TGI: > 50 µM
[3]
  TGI: > 50 µM
[4]
  TGI: > 50 µM
[5]
  TGI: > 50 µM
[6]
  TGI: > 50 µM
[7]
  TGI: > 50 µM
[8]
  TGI: > 50 µM
[9]
  TGI: > 50 µM
[10]
  TGI: > 50 µM
[11]
  TGI: > 50 µM
[12]
  TGI: > 50 µM
[13]
  TGI: > 50 µM
[14]
  TGI: > 50 µM
[15]
  TGI: > 50 µM
[16]
  TGI: > 50 µM
[17]
  TGI: > 50 µM
[18]
  TGI: > 50 µM
[19]
  TGI: > 50 µM
[20]
  TGI: > 50 µM
[21]
  TGI: > 50 µM
[22]
  TGI: > 50 µM
[23]
  TGI: > 50 µM
[24]
  TGI: > 50 µM
[25]
  TGI: > 50 µM
[26]
  TGI: > 50 µM
[27]
  TGI: > 50 µM
[28]
  TGI: > 50 µM
[29]
  TGI: > 50 µM
[30]
  TGI: > 50 µM
[31]
  TGI: > 50 µM
[32]
  TGI: > 50 µM
[33]
  TGI: > 50 µM
[34]
  TGI: > 50 µM
[35]
  TGI: > 50 µM
[36]
  TGI: 39.3 µM
[37]
  TGI: > 50 µM
[38]
  TGI: > 50 µM
[39]
  TGI: > 50 µM
[40]
  TGI: > 50 µM
[41]
  TGI: > 50 µM
[42]
  TGI: 30.6 µM
[43]
  TGI: > 50 µM
[44]
  TGI: > 50 µM
[45]
  TGI: > 50 µM
[46]
  TGI: > 50 µM
[47]
  TGI: > 50 µM
[48]
  TGI: > 50 µM
[49]
  TGI: > 50 µM
[50]
  TGI: > 50 µM
[51]
  TGI: > 50 µM
[52]
  TGI: > 50 µM
[53]
  TGI: > 50 µM
[54]
  TGI: > 50 µM
[55]
  TGI: > 50 µM

## CCOC(=O)Nc1cc2c(c(N)n1)N=C(c1ccc(OC)cc1)CN2
[1]
  TGI: 1.49 µM
[2]
  TGI: 1.9 µM
[5]
  GI50: 0.00386 µM
  TGI: 0.392 µM and 0.0787 µM
[6]
  TGI: 0.0156 µM
[7]
  TGI: 0.196 µM and 0.146 µM
[8]
  GI50: 0.0264 µM
  TGI: > 100 µM
[10]
  TGI: 19.1 µM
[11]
  TGI: 0.659 µM
[12]
  TGI: 35.7 µM
[13]
  GI50: 0.0355 µM
  TGI: 0.0741 µM
[14]
  TGI: 21.8 µM
[15]
  TGI: 0.0014 µM
[16]
  TGI: > 100 µM
[17]
  GI50: 0.0185 µM
  TGI: 0.178 µM
[18]
  TGI: 0.000324 µM
[19]
  TGI: 2.47 µM
[22]
  GI50: 11.4 µM
  TGI: 49.4 µM
[23]
  TGI: > 100 µM
[24]
  TGI: 0.00932 µM
[25]
  TGI: 0.00636 µM
[26]
  GI50: 0.837 µM
  TGI: 90.1 µM
[27]
  TGI: 0.0838 µM
[56]
  TGI: 0.277 µM
[57]
  TGI: 48.2 µM
[29]
  TGI: > 100 µM
[31]
  TGI: 54.5 µM
[32]
  GI50: 0.0144 µM
  TGI: 3.15 µM
[34]
  GI50: > 100 µM
  TGI: > 100 µM
[37]
  GI50: < 0.0001 µM
[38]
  GI50: 0.0204 µM
  TGI: 2.34 µM
[39]
  TGI: 0.321 µM
[41]
  TGI: 0.141 µM
[42]
  TGI: 0.00595 µM
[43]
  TGI: > 100 µM
[44]
  GI50: 0.00142 µM
  TGI: 0.0521 µM and 0.48 µM
[45]
  TGI: > 100 µM
[46]
  GI50: 0.012 µM
  TGI: 0.256 µM
[47]
  TGI: 80.5 µM
[49]
  GI50: 0.0475 µM
  TGI: 18.7 µM
[50]
  GI50: 12.9 µM
  TGI: 36.5 µM
[51]
  TGI: 33.3 µM
[52]
  TGI: 1.31 µM
[58]
  GI50: 0.178 µM
  TGI: 0.645 µM and 0.972 µM
[55]
  TGI: 1.32 µM
